Measurements: US10835624B2, “Compounds for imaging Tau protein aggregates” (AC IMMUNE S.A., priority 2016, dated 2020)
Marks after values point to notes of the source that are not given here.

Legend:
[1] = target: T1, Monoamine oxidase A (MAO A) (Homo sapiens, UniProt P21397); conditions: Vermeiren et al. 2015; cited from earlier work
T1 sequence (P21397 1-527): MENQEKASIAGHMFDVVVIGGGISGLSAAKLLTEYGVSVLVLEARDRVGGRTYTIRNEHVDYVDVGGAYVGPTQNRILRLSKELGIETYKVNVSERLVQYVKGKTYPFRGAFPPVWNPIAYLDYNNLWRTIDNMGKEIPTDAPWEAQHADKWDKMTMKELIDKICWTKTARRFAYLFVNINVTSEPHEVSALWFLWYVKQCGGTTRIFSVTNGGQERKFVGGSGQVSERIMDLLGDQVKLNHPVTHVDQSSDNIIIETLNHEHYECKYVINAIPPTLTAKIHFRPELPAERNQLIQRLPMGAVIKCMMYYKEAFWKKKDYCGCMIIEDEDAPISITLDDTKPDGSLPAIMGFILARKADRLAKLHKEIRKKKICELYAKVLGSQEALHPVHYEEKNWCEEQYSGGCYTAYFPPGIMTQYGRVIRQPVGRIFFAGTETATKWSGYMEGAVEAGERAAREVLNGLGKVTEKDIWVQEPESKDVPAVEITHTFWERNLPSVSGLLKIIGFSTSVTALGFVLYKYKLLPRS

[2] = target: T2, MAO A (Mus musculus, UniProt Q64133); test: MAO A 18F-FEH competition assay in mouse brain homogenate; assay type: binding; design: Low affinity to MAO A (IC50 in mouse brain homogenate): key to the marks not given beside the values; conditions: for IC50: 18F-FEH competition, read-out: IC50 MAO A in mouse brain homogenate
T2 construct: from tissue; host or cells: whole mouse brain homogenate
T2 sequence (Q64133 1-526): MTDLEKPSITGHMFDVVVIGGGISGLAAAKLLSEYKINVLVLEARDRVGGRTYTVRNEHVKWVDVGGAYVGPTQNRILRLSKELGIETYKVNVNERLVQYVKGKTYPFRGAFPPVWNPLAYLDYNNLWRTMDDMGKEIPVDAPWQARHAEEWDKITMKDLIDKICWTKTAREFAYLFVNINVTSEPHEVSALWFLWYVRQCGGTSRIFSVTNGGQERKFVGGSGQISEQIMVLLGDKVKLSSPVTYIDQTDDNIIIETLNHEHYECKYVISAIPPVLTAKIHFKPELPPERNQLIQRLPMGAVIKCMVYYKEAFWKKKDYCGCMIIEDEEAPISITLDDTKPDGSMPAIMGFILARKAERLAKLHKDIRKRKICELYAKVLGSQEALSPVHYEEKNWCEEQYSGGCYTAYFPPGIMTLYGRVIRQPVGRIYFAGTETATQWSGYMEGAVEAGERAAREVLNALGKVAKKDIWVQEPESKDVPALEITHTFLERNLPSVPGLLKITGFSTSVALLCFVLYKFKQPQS

[3] = PK studies in healthy mice (PET); assay type: in vivo, NMRI mice; design: Good brain uptake / Fast washout from healthy brain: key: −: poor; ∘: moderate; +: good; ++: very good; +++: excellent; conditions: for Low retention in healthy brain / Good brain uptake / Low or minor de-fluorination / Fast washout from healthy brain: grade; for Low retention in healthy brain: healthy mice 60 min after iv injection; for Good brain uptake: healthy mice after iv injection; for Low or minor de-fluorination: bone uptake in healthy mice at 60 min; for Fast washout from healthy brain: healthy mice; for De-fluorination in mice (in words): mouse, in vivo; on Good brain uptake: key: −: poor; ∘: moderate; +: good; ++: very good; +++: excellent; on Low or minor de-fluorination: key: −: poor; ∘: moderate; +: good; ++: very good; +++: excellent; on Low retention in healthy brain: key: −: poor; ∘: moderate; +: good; ++: very good; +++: excellent
Experimental: NMRI mice (weight range 25-35 g) were injected intravenously with the ^18F-labeled compounds. Up to 150 μL of 1×PBS solution with 10%-15% EtOH or dilution medium ([…]) containing the ^18F-labeled compound (2-10 MBq) were injected. Anesthesia with isoflurane was induced before injection of the tracer and maintained during the image acquisition period. PET scans were performed using a SIEMENS INVEON small animal PET/CT scanner (Siemens, Knoxville, Tenn.). PET acquisition was started immediately before the radioactive dose was injected into the animal through the tail vein. Images were generated as dynamic scans for 60 minutes.
The peak uptake in the brain was set to 100% and washout curves were generated to evaluate the clearance of the activity from the normal brain (FIG. 2).

[4] = test system: Tau pathology; test: Human imaging study (dynamic PET); assay type: in vivo
Experimental: In a clinical trial, subjects with AD or PSP as well as non-demented controls (NDC) underwent dynamic PET imaging for over 3 h following 370 MBq bolus injection of ^18F-3a.

[5] = test system: Tau (AD brain vs mouse brain homogenate); test: Tracer signal in AD brain vs mouse brain homogenate; assay type: binding, human / mouse; design: High signal to noise (AD brain/mouse brain homogenate): key: −: poor; ∘: moderate; +: good; ++: very good; +++: excellent
[6] = test system: Tau in human brain sections (AD, PSP, PiD, HC); test: Autoradiography in human brain slices; assay type: binding
Experimental: 18 micron thick frozen human brain slices and 6 micron thick human FFPE brain slices were examined via autoradiography. Brain sections were equilibrated for at least 1 h in 1×PBS solution prior to use in the experiment. Each brain section was covered with a solution of the ^18F-labeled tracer (200 Bq/μl, 500 μl) in 1×PBS. For blocking experiments with the corresponding ^19F-compound, an excess of the blocking compound (10 μM) was mixed with the ^18F-compound. The brain sections were allowed to incubate with the tracer solution at room temperature for 1 h, drained afterwards and placed in a slide holder. The slides were then washed sequentially with 1×PBS for 1 min; 70% EtOH in 1×PBS for 2 min; 30% EtOH in 1×PBS for 2 min; and 1×PBS for 1 min. The slides were allowed to air-dry before being placed on Fuji imaging plates […] for overnight exposure. The imaging plates were scanned and the signal was measured using Fuji software to produce an autoradiographic image of the brain section.

[7] = test system: Tau (AD brain homogenate vs HC brain homogenate); test: Tracer signal in AD brain homogenate vs healthy control brain homogenate; assay type: binding, human; design: High signal to noise (AD brain homogenate/HC brain homogenate) / High signal to noise (further homogenates): key to the marks not given beside the values; conditions: for Ratio of tracer signal in AD brain homogenates/signal in HC brain homogenates: further homogenates

[18F]c1ccc(-c2ccc3c(c2)[nH]c2ccncc23)cn1 [^18F-1]
Kd [1]: 0.0015 µM
IC50 ([2]; non-radioactive derivatives): 0.022 µM
Low retention in healthy brain [3]: −
Good brain uptake [3]: ++

[18F]c1ccc(-c2ccc3c(n2)[nH]c2ccncc23)cn1 [^18F-2]
IC50 ([2]; non-radioactive derivatives): 0.475 µM
Low or minor de-fluorination [3]: −
Fast washout from healthy brain [3]: ++
Good brain uptake [3]: ++
De-fluorination in mice (in words) [3]: De-fluorination in mice was found

[18F]c1cc(-c2ccc3c(n2)[nH]c2ccncc23)ccn1 [^18F-3a]
Brain uptake in human subjects ([4]; 370 MBq bolus injection, PET): good
Washout from non-target brain regions in human subjects ([4]; 370 MBq bolus injection, PET): fast
Uptake in temporal, parietal and frontal lobes ([4]; AD subjects): focal asymmetric uptake
Uptake in globus pallidus and substantia nigra ([4]; PSP subjects): focal increased uptake
Uptake in choroid plexus, basal ganglia, striatum, amygdala, meninges or other off-target regions ([4]; non-demented controls (NDC)): no increased uptake
Ratio of tracer signal in AD brain/signal in mouse brain homogenate ([5]; 18F tracers): 9.2^a
Fold higher signal to noise ratio than 18F-1 ([5]; AD brain homogenate vs whole mouse brain homogenate): 4.2 fold
High signal to noise (AD brain/mouse brain homogenate) ([5]; grade): ++
IC50 ([2]; non-radioactive derivatives): 1.4 µM
Low affinity to MAO A (IC50 in mouse brain homogenate) ([2]; grade, non-radioactive derivatives): +++
Fold higher MAO A IC50 than compound 18F-1 ([2]; whole mouse brain homogenate): 64 fold
Fold higher MAO A IC50 than compound 18F-2 ([2]; whole mouse brain homogenate): 3 fold
Low or minor de-fluorination [3]: +++
Fast washout from healthy brain [3]: ++
Low retention in healthy brain [3]: ++
Good brain uptake [3]: ++
Fold faster washout from healthy brain than 18F-1 ([3]; mice): 1.6 fold
Fold lower long-term retention in healthy brain than 18F-1 ([3]; mice): 2.7 fold
Fold lower long-term retention in healthy brain than 18F-2 ([3]; mice): 2 fold
De-fluorination in mice (in words) [3]: No de-fluorination
Autoradiography signal in PSP brain sections [6]: strong signal
Autoradiography signal in PiD brain sections [6]: strong signal
Autoradiography signal in healthy control (HC) sections [6]: no specific signal
Autoradiography signal in AD brain sections ([6]; blockable with excess cold compound): strong punctated staining
Binding to AD brain (Braak stage 1/3), autoradiography on human brain slices ([6]; grade, in house data): +++^a)
Binding to AD brain (Braak stage 5/6), autoradiography on human brain slices ([6]; grade, in house data): +++^a)
Binding to PSP, autoradiography on human brain slices ([6]; grade, in house data): +++^a)
Binding to PiD, autoradiography on human brain slices ([6]; grade, in house data): +++^a)
Fold higher signal to noise ratio than 18F-1 ([7]; AD brain homogenate vs HC brain homogenate): 5.2 fold
Fold higher signal to noise ratio than 18F-1 ([7]; further AD brain homogenates vs HC brain homogenate): 8.2-13.5 fold
Ratio of tracer signal in AD brain homogenates/signal in HC brain homogenates ([7]; first of 3 values): 14.0
Ratio of tracer signal in AD brain homogenates/signal in HC brain homogenates ([7]; second of 3 values): 17.9
Ratio of tracer signal in AD brain homogenates/signal in HC brain homogenates ([7]; third of 3 values): 33.8
High signal to noise (further homogenates) ([7]; grade, 3 different AD brain homogenates): +++
High signal to noise (AD brain homogenate/HC brain homogenate) ([7]; grade, 18F tracers): ++
